Measurements as given in the supplement of paper PMC13207355.

Legend:
Details in all cases: exposure time: 72 h
[1] = test system: FT3469 (normal neural stem cell line); assay: surviving fraction (nuclei count normalised to DMSO); higher = more cells surviving (less toxic)
[2] = test system: E13 (patient-derived glioblastoma stem cells of classical subtype); assay: as above
[3] = test system: E57 (patient-derived glioblastoma stem cells of mesenchymal subtype); assay: as above
[4] = test system: E34 (patient-derived glioblastoma stem cells of proneural subtype); assay: as above
[5] = test system: E31 (patient-derived glioblastoma stem cells of proneural subtype); assay: as above
[6] = test system: E28 (patient-derived glioblastoma stem cells of classical subtype); assay: as above
[7] = test system: E21 (patient-derived glioblastoma stem cells of mesenchymal subtype); assay: as above
[8] = test system: FT3469; assay: phenotypic distance (Euclidean, principal components) from DMSO controls (arbitrary units); higher = stronger morphological change
[9] = test system: E13; assay: as above
[10] = test system: E57; assay: as above
[11] = test system: E34; assay: as above
[12] = test system: E31; assay: as above
[13] = test system: E28; assay: as above
[14] = test system: E21; assay: as above
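Throughout, for phenotypic distance (Euclidean, principal components) from DMSO controls: cell Painting imaging in 384-well plates, CellProfiler features reduced to at least 20 principal components, Euclidean distance versus same-plate DMSO vehicle wells (0.1% v/v), median over six images per well.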
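Throughout, for surviving fraction (nuclei count normalised to DMSO): nuclei counted by high-content imaging of Hoechst-stained cells in laminin-coated 384-well plates, relative to 0.1% DMSO vehicle wells, with staurosporine as cell-death control.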

CCCCCC[C@H]1C(=O)O[C@H](C)[C@H](NC(=O)c2cccc(NC=O)c2O)C(=O)O[C@@H](C)[C@@H]1OC(=O)CC(C)C [Antimycin A]
Details	phenotypic distance	surviving fraction
[1], 4.1 nM	–	0.95
[1], 12.3 nM	–	0.895
[1], 37 nM	–	0.872
[1], 111.1 nM	–	0.823
[1], 333.3 nM	–	0.719
[1], 1000 nM	–	0.929
[1], 3000 nM	–	0.659
[2], 4.1 nM	–	0.562
[2], 12.3 nM	–	0.544
[2], 37 nM	–	0.546
[2], 111.1 nM	–	0.571
[2], 333.3 nM	–	0.512
[2], 1000 nM	–	0.538
[2], 3000 nM	–	0.416
[3], 4.1 nM	–	0.694
[3], 12.3 nM	–	0.642
[3], 37 nM	–	0.581
[3], 111.1 nM	–	0.515
[3], 333.3 nM	–	0.61
[3], 1000 nM	–	0.513
[3], 3000 nM	–	0.466
[4], 4.1 nM	–	0.771
[4], 12.3 nM	–	0.666
[4], 37 nM	–	0.745
[4], 111.1 nM	–	0.619
[4], 333.3 nM	–	0.717
[4], 1000 nM	–	0.682
[4], 3000 nM	–	0.652
[5], 4.1 nM	–	0.793
[5], 12.3 nM	–	0.864
[5], 37 nM	–	0.779
[5], 111.1 nM	–	0.683
[5], 333.3 nM	–	0.721
[5], 1000 nM	–	0.599
[5], 3000 nM	–	0.661
[6], 4.1 nM	–	0.8
[6], 12.3 nM	–	0.561
[6], 37 nM	–	0.625
[6], 111.1 nM	–	0.585
[6], 333.3 nM	–	0.506
[6], 1000 nM	–	0.527
[6], 3000 nM	–	0.521
[7], 4.1 nM	–	0.588
[7], 12.3 nM	–	0.629
[7], 37 nM	–	0.542
[7], 111.1 nM	–	0.55
[7], 333.3 nM	–	0.594
[7], 1000 nM	–	0.585
[7], 3000 nM	–	0.494
[8], 4.1 nM	0.791	–
[8], 12.3 nM	1.47	–
[8], 37 nM	1.52	–
[8], 111.1 nM	1.43	–
[8], 333.3 nM	1.68	–
[8], 1000 nM	1.44	–
[8], 3000 nM	1.34	–
[9], 4.1 nM	2.21	–
[9], 12.3 nM	2	–
[9], 37 nM	1.93	–
[9], 111.1 nM	2.18	–
[9], 333.3 nM	2.6	–
[9], 1000 nM	2.46	–
[9], 3000 nM	3.04	–
[10], 4.1 nM	2.07	–
[10], 12.3 nM	3.56	–
[10], 37 nM	4.06	–
[10], 111.1 nM	4.75	–
[10], 333.3 nM	4.39	–
[10], 1000 nM	4.71	–
[10], 3000 nM	5.22	–
[11], 4.1 nM	1.81	–
[11], 12.3 nM	2.11	–
[11], 37 nM	1.7	–
[11], 111.1 nM	2.19	–
[11], 333.3 nM	2.19	–
[11], 1000 nM	2.08	–
[11], 3000 nM	1.39	–
[12], 4.1 nM	1.51	–
[12], 12.3 nM	1.62	–
[12], 37 nM	1.68	–
[12], 111.1 nM	1.91	–
[12], 333.3 nM	2	–
[12], 1000 nM	1.59	–
[12], 3000 nM	1.73	–
[13], 4.1 nM	0.765	–
[13], 12.3 nM	1.08	–
[13], 37 nM	1.34	–
[13], 111.1 nM	1.41	–
[13], 333.3 nM	1.38	–
[13], 1000 nM	1.86	–
[13], 3000 nM	1.87	–
[14], 4.1 nM	3.65	–
[14], 12.3 nM	3.44	–
[14], 37 nM	4.09	–
[14], 111.1 nM	3.93	–
[14], 333.3 nM	3.39	–
[14], 1000 nM	3.78	–
[14], 3000 nM	3.71	–

C[C@@H](O[C@H]1OCCN(Cc2n[nH]c(=O)[nH]2)[C@H]1c1ccc(F)cc1)c1cc(C(F)(F)F)cc(C(F)(F)F)c1 [Aprepitant]
Details	phenotypic distance	surviving fraction
[1], 4.1 nM	–	0.843
[1], 12.3 nM	–	0.823
[1], 37 nM	–	0.935
[1], 111.1 nM	–	0.829
[1], 333.3 nM	–	0.999
[1], 1000 nM	–	0.797
[1], 3000 nM	–	0.929
[2], 4.1 nM	–	0.928
[2], 12.3 nM	–	0.902
[2], 37 nM	–	0.98
[2], 111.1 nM	–	0.996
[2], 333.3 nM	–	0.901
[2], 1000 nM	–	0.903
[2], 3000 nM	–	0.856
[3], 4.1 nM	–	0.865
[3], 12.3 nM	–	1.03
[3], 37 nM	–	1.02
[3], 111.1 nM	–	0.945
[3], 333.3 nM	–	0.985
[3], 1000 nM	–	1.07
[3], 3000 nM	–	0.96
[4], 4.1 nM	–	1.01
[4], 12.3 nM	–	1.01
[4], 37 nM	–	0.914
[4], 111.1 nM	–	1.03
[4], 333.3 nM	–	0.934
[4], 1000 nM	–	0.948
[4], 3000 nM	–	0.963
[5], 4.1 nM	–	1.03
[5], 12.3 nM	–	0.789
[5], 37 nM	–	1.01
[5], 111.1 nM	–	0.981
[5], 333.3 nM	–	1.07
[5], 1000 nM	–	1.04
[5], 3000 nM	–	1
[6], 4.1 nM	–	0.85
[6], 12.3 nM	–	1.09
[6], 37 nM	–	0.982
[6], 111.1 nM	–	1.03
[6], 333.3 nM	–	0.935
[6], 1000 nM	–	1.03
[6], 3000 nM	–	0.879
[7], 4.1 nM	–	1.02
[7], 12.3 nM	–	0.857
[7], 37 nM	–	0.96
[7], 111.1 nM	–	1.02
[7], 333.3 nM	–	1.02
[7], 1000 nM	–	0.955
[7], 3000 nM	–	0.913
[8], 4.1 nM	0.824	–
[8], 12.3 nM	0.817	–
[8], 37 nM	0.96	–
[8], 111.1 nM	0.816	–
[8], 333.3 nM	0.735	–
[8], 1000 nM	0.537	–
[8], 3000 nM	0.788	–
[9], 4.1 nM	0.787	–
[9], 12.3 nM	0.437	–
[9], 37 nM	0.522	–
[9], 111.1 nM	0.344	–
[9], 333.3 nM	0.93	–
[9], 1000 nM	0.532	–
[9], 3000 nM	1.13	–
[10], 4.1 nM	0.607	–
[10], 12.3 nM	0.891	–
[10], 37 nM	0.573	–
[10], 111.1 nM	0.373	–
[10], 333.3 nM	0.479	–
[10], 1000 nM	1.04	–
[10], 3000 nM	1.13	–
[11], 4.1 nM	0.513	–
[11], 12.3 nM	0.635	–
[11], 37 nM	0.742	–
[11], 111.1 nM	0.53	–
[11], 333.3 nM	0.573	–
[11], 1000 nM	0.615	–
[11], 3000 nM	1.13	–
[12], 4.1 nM	0.696	–
[12], 12.3 nM	1.23	–
[12], 37 nM	0.463	–
[12], 111.1 nM	0.647	–
[12], 333.3 nM	1.03	–
[12], 1000 nM	0.986	–
[12], 3000 nM	1.02	–
[13], 4.1 nM	0.614	–
[13], 12.3 nM	0.686	–
[13], 37 nM	0.613	–
[13], 111.1 nM	0.671	–
[13], 333.3 nM	0.788	–
[13], 1000 nM	0.862	–
[13], 3000 nM	0.675	–
[14], 4.1 nM	3.49	–
[14], 12.3 nM	1.08	–
[14], 37 nM	0.937	–
[14], 111.1 nM	0.517	–
[14], 333.3 nM	0.679	–
[14], 1000 nM	0.478	–
[14], 3000 nM	1.36	–

OC[C@H]1O[C@@H](Oc2ccc(O)cc2)[C@H](O)[C@@H](O)[C@@H]1O [Arbutin]
Details	phenotypic distance	surviving fraction
[1], 4.1 nM	–	1.08
[1], 12.3 nM	–	0.99
[1], 37 nM	–	1.28
[1], 111.1 nM	–	0.987
[1], 333.3 nM	–	1.18
[1], 1000 nM	–	1.16
[1], 3000 nM	–	0.993
[2], 4.1 nM	–	1.01
[2], 12.3 nM	–	1.04
[2], 37 nM	–	0.905
[2], 111.1 nM	–	0.917
[2], 333.3 nM	–	0.929
[2], 1000 nM	–	1.04
[2], 3000 nM	–	0.991
[3], 4.1 nM	–	0.949
[3], 12.3 nM	–	0.993
[3], 37 nM	–	1.11
[3], 111.1 nM	–	0.918
[3], 333.3 nM	–	1.07
[3], 1000 nM	–	1
[3], 3000 nM	–	1
[4], 4.1 nM	–	0.904
[4], 12.3 nM	–	1.15
[4], 37 nM	–	1.05
[4], 111.1 nM	–	1.02
[4], 333.3 nM	–	1.08
[4], 1000 nM	–	1.02
[4], 3000 nM	–	0.848
[5], 4.1 nM	–	0.937
[5], 12.3 nM	–	0.846
[5], 37 nM	–	0.945
[5], 111.1 nM	–	0.889
[5], 333.3 nM	–	1.05
[5], 1000 nM	–	1.13
[5], 3000 nM	–	0.884
[6], 4.1 nM	–	1.1
[6], 12.3 nM	–	1.03
[6], 37 nM	–	1.07
[6], 111.1 nM	–	1.15
[6], 333.3 nM	–	1.07
[6], 1000 nM	–	1.07
[6], 3000 nM	–	0.905
[7], 4.1 nM	–	1.03
[7], 12.3 nM	–	0.989
[7], 37 nM	–	1.07
[7], 111.1 nM	–	0.916
[7], 333.3 nM	–	1.05
[7], 1000 nM	–	0.971
[7], 3000 nM	–	0.967
[8], 4.1 nM	0.247	–
[8], 12.3 nM	0.982	–
[8], 37 nM	0.795	–
[8], 111.1 nM	1.03	–
[8], 333.3 nM	0.636	–
[8], 1000 nM	1.1	–
[8], 3000 nM	0.991	–
[9], 4.1 nM	0.566	–
[9], 12.3 nM	0.859	–
[9], 37 nM	0.511	–
[9], 111.1 nM	0.508	–
[9], 333.3 nM	0.829	–
[9], 1000 nM	0.191	–
[9], 3000 nM	0.813	–
[10], 4.1 nM	0.568	–
[10], 12.3 nM	0.753	–
[10], 37 nM	0.629	–
[10], 111.1 nM	0.522	–
[10], 333.3 nM	0.897	–
[10], 1000 nM	0.4	–
[10], 3000 nM	0.484	–
[11], 4.1 nM	0.689	–
[11], 12.3 nM	0.94	–
[11], 37 nM	0.434	–
[11], 111.1 nM	0.454	–
[11], 333.3 nM	0.675	–
[11], 1000 nM	0.496	–
[11], 3000 nM	1.12	–
[12], 4.1 nM	0.898	–
[12], 12.3 nM	0.639	–
[12], 37 nM	0.606	–
[12], 111.1 nM	0.754	–
[12], 333.3 nM	0.505	–
[12], 1000 nM	0.754	–
[12], 3000 nM	0.805	–
[13], 4.1 nM	0.41	–
[13], 12.3 nM	0.873	–
[13], 37 nM	0.666	–
[13], 111.1 nM	1.1	–
[13], 333.3 nM	0.543	–
[13], 1000 nM	0.716	–
[13], 3000 nM	0.531	–
[14], 4.1 nM	0.434	–
[14], 12.3 nM	1.06	–
[14], 37 nM	0.902	–
[14], 111.1 nM	0.857	–
[14], 333.3 nM	0.484	–
[14], 1000 nM	0.568	–
[14], 3000 nM	0.491	–
